Test results as given in patent US11400096B2, “Small molecules for the treatment of autoimmune disorders” (Board of Regents, The University of Texas System, priority 2017, dated 2022).

System: IL-17
Assay: Inhibition of IL-17 secretion by compounds
Format: cell-based

SMILES	IL-17 Secretion Inhibition [%]
CCCn1c(=O)c2nc(-c3ccc(OCc4nc5ccccc5[nH]4)cc3)[nH]c2n(CCC)c1=O [Compound P2]	54.1
CCCn1c(=O)c2nc(-c3ccc(OCc4nc5cc(C)ccc5[nH]4)cc3)[nH]c2n(CCC)c1=O [Compound P5]	64.3
CCOc1nc2c(N)ncnc2n1CC1CC1 [Compound P8]	45.4
